Experimental data: article PMC6253998, “Ring-substituted 4-Hydroxy-1H-quinolin-2-ones: Preparation and Biological Activity” (Molecules, 2009)
pIC50: −log10 of the molar value. In brackets after ≈: the same amount, converted by molar mass. Like-named read-outs stand apart in the source and are kept apart here.

What was measured:
spinach chloroplasts = assay: Inhibition of oxygen evolution rate (OER) / photosynthetic electron transport in spinach chloroplasts; assay type: biochemical, Spinacia oleracea L.; conditions: for pIC50: DCPIP photoreduction, pH 7.2
Procedure: Chloroplasts were prepared from spinach (Spinacia oleracea L.) according to Masarovicova and Kralova. The inhibition of photosynthetic electron transport (PET) in spinach chloroplasts was determined spectrophotometrically (Genesys 6, Thermo Scientific, U.S.A.) using an artificial electron acceptor 2,6-dichlorophenol-indophenol (DCPIP) according to Kralova et al. and the rate of photosynthetic electron transport was monitored as a photoreduction of DCPIP. The measurements were carried out in phosphate buffer (0.02 mol/L, pH 7.2) containing sucrose (0.4 mol/L), MgCl2 (0.005 mol/L) and NaCl (0.015 mol/L). The chlorophyll content was 30 mg/L in these experiments and the samples were irradiated (~100 W/m^2) from 10 cm distance with a halogen lamp (250 W) using a 4 cm water filter to prevent warming of the samples (suspension temperature 22 °C). The studied compounds were dissolved in DMSO due to their limited water solubility. […] The inhibitory efficiency of the studied compounds was expressed by IC50 values, i.e. by molar concentration of the compounds causing 50% decrease in the oxygen evolution rate relative to the untreated control.

[1] = Lipophilicity HPLC determination (capacity factor k / log k); assay type: physicochemical; conditions: RP-HPLC, C18 column, MeOH 55.0% / H2O 45.0%, isocratic
Procedure: Hydrophobicities (log P/Clog P values) of the compounds 1-12 were calculated using two commercially available programs and also measured by means of the reversed phase high performance liquid chromatography (RP-HPLC) method for lipophilicity measurement. The procedure was performed under isocratic conditions with methanol as an organic modifier in the mobile phase using an end-capped non-polar C18 stationary RP column. The capacity factors k were determined and subsequent log k values were calculated.
The HPLC separation module Waters Alliance 2695 XE and Waters Photodiode Array Detector 2996 (Waters Corp., Milford, MA, U.S.A.) were used. A Symmetry® C18 5 μm, 4.6 × 250 mm, Part No. WAT054275, (Waters Corp., Milford, MA, U.S.A.) chromatographic column was used. The HPLC separation process was monitored by Millennium32® Chromatography Manager Software, Waters 2004 (Waters Corp., Milford, MA, U.S.A.). The mixture of MeOH p.a. (55.0%) and H2O-HPLC – Mili-Q Grade (45.0%) was used as a mobile phase. The total flow of the column was 0.9 mL/min, injection 30 μL, column temperature 30 °C and sample temperature 10 °C. The detection wavelength 210 nm was chosen. The KI methanolic solution was used for the dead time (TD) determination. Retention times (tR) were measured in minutes. The capacity factors k were calculated using the Millennium32® Chromatography Manager Software according to formula k = (tR - tD) / tD, where tR is the retention time of the solute, whereas tD denotes the dead time obtained via an unretained analyte. Log k, calculated from the capacity factor k, is used as the lipophilicity index converted to log P scale.

[2] = tested on: Trichosporon beigelii 1188; assay: In vitro antifungal broth microdilution test; assay type: cell-based; conditions: Trichosporon beigelii, 1188, RPMI 1640, pH 7.0, 35 °C, read-out: MIC/IC80 TB
Procedure: The broth microdilution test was used for the assessment of in vitro antifungal activity of the synthesized compounds against Candida albicans ATCC 44859 (CA), Candida tropicalis 156 (CT), Candida krusei ATCC 6258 (CK), Candida glabrata 20/I (CG), Trichosporon beigelii 1188 (TB), Aspergillus fumigatus 231 (AF), Absidia corymbifera 272 (AC), and Trichophyton mentagrophytes 445 (TM). Fluconazole (FLU) was used as the standard of a clinically used antimycotic drug. The procedure was performed with twofold dilution of the compounds in RPMI 1640 (Sevapharma a.s., Prague, Czech Republic) buffered to pH 7.0 with 0.165 mol of 3-morpholino-propane-1-sulfonic acid (MOPS, Sigma, Germany). The final concentrations of the compounds ranged from 500 to 0.975 μmol/l. Drug–free controls were included. The MIC was defined as an 80% or greater (IC80) reduction of growth in comparison with the control. The values of MICs were determined after 24 and 48 h of static incubation at 35 °C. For T. mentagrophytes, the final MICs were determined after 72 and 120 h of incubation.

[3] = tested on: Trichophyton mentagrophytes 445; assay: In vitro antifungal broth microdilution test; assay type: cell-based
Procedure: (§1) Fluconazole (FLU) was used as the standard of a clinically used antimycotic drug. The procedure was performed with twofold dilution of the compounds in […]., Prague, Czech Republic) buffered to pH 7.0 with 0.165 mol of 3-morpholino-propane-1-sulfonic acid (MOPS, Sigma, Germany). […] Drug-free controls were included. The MIC was defined as an 80% or greater (IC80) reduction of growth in comparison with the control.

[4] = tested on: Aspergillus fumigatus 231; assay: In vitro antifungal broth microdilution test; assay type: cell-based
Procedure: as §1

Candida krusei ATCC 6258 = assay: In vitro antifungal broth microdilution test; assay type: cell-based; conditions: Pichia kudriavzevii
Procedure: as §1

Candida tropicalis 156 = assay: In vitro antifungal broth microdilution test; assay type: cell-based
Procedure: as §1

Candida glabrata 20/I = assay: In vitro antifungal broth microdilution test; assay type: cell-based; conditions: Nakaseomyces glabratus, 20/I
Procedure: as §1

[5] = tested on: Candida albicans ATCC 44859; assay: In vitro antifungal broth microdilution test; assay type: cell-based; conditions: Candida albicans
Procedure: as §1

Absidia corymbifera 272 = assay: In vitro antifungal broth microdilution test; assay type: cell-based
Procedure: as §1

[6] = Trichophyton mentagrophytes, 445, 72h, RPMI 1640, pH 7.0, 35 °C, read-out: MIC/IC80 TM
[7] = Trichophyton mentagrophytes, 445, 120h, RPMI 1640, pH 7.0, 35 °C, read-out: MIC/IC80 TM
[8] = Aspergillus fumigatus, 231, 24h, RPMI 1640, pH 7.0, 35 °C, read-out: MIC/IC80 AF
[9] = Aspergillus fumigatus, 231, 48h, RPMI 1640, pH 7.0, 35 °C, read-out: MIC/IC80 AF
[10] = ATCC6258, 24h, RPMI 1640, pH 7.0, 35 °C, read-out: MIC/IC80 CK
[11] = ATCC6258, 48h, RPMI 1640, pH 7.0, 35 °C, read-out: MIC/IC80 CK
[12] = Candida tropicalis, 156, 24h, RPMI 1640, pH 7.0, 35 °C, read-out: MIC/IC80 CT
[13] = Candida tropicalis, 156, 48h, RPMI 1640, pH 7.0, 35 °C, read-out: MIC/IC80 CT
[14] = 24h, RPMI 1640, pH 7.0, 35 °C, read-out: MIC/IC80 CG
[15] = 48h, RPMI 1640, pH 7.0, 35 °C, read-out: MIC/IC80 CG
[16] = ATCC44859, 24h, RPMI 1640, pH 7.0, 35 °C, read-out: MIC/IC80 CA
[17] = ATCC44859, 48h, RPMI 1640, pH 7.0, 35 °C, read-out: MIC/IC80 CA
[18] = Lichtheimia corymbifera, 272, 24h, RPMI 1640, pH 7.0, 35 °C, read-out: MIC/IC80 AC
[19] = Lichtheimia corymbifera, 272, 48h, RPMI 1640, pH 7.0, 35 °C, read-out: MIC/IC80 AC

| Compound | pIC50 (spinach chloroplasts) | log k [1] | MIC ([2]; 24h) [µM] | MIC ([2]; 48h) [µM] | MIC [3, 6] [µM] | MIC [3, 7] [µM] | MIC [4, 8] [µM] | MIC [4, 9] [µM] | MIC (Candida krusei ATCC 6258; [10]) [µM] | MIC (Candida krusei ATCC 6258; [11]) [µM] | MIC (Candida tropicalis 156; [12]) [µM] | MIC (Candida tropicalis 156; [13]) [µM] | MIC (Candida glabrata 20/I; [14]) [µM] | MIC (Candida glabrata 20/I; [15]) [µM] | MIC [5, 16] [µM] | MIC [5, 17] [µM] | MIC (Absidia corymbifera 272; [18]) [µM] | MIC (Absidia corymbifera 272; [19]) [µM] | also measured |
| --- | --- | --- | --- | --- | --- | --- | --- | --- | --- | --- | --- | --- | --- | --- | --- | --- | --- | --- | --- |
| O=c1[nH]c2ccccc2c(O)c1[N+](=O)[O-] [Compound 5, 4-Hydroxy-3-nitroquinolin-2(1H)-one] | 3.29 | 0.4052 | > 500 | > 500 | > 500 | > 500 | > 500 | > 500 | > 500 | > 500 | > 500 | > 500 | > 500 | > 500 | > 500 | > 500 | > 500 | > 500 | OER inhibition effectiveness relative to compound 1 (spinach chloroplasts): approximately twice as effective as compound 1 |
| O=c1cc(O)c2ccccc2[nH]1 [Compound 1, 4-Hydroxyquinolin-2(1H)-one] | 3.03 | 0.0664 | > 500 | > 500 | – | – | – | – | – | – | – | – | – | – | – | – | – | – | MIC ([3]; Trichophyton mentagrophytes, 445, 72 h, pH 7, read-out: MIC/IC80 TM): > 500 µM; MIC ([3]; Trichophyton mentagrophytes, 445, 120 h, pH 7, read-out: MIC/IC80 TM): > 500 µM; MIC ([4]; Aspergillus fumigatus, 231, 24 h, pH 7, read-out: MIC/IC80 AF): > 500 µM; MIC ([4]; Aspergillus fumigatus, 231, 48 h, pH 7, read-out: MIC/IC80 AF): > 500 µM; MIC (Candida krusei ATCC 6258; ATCC6258, 24 h, pH 7, read-out: MIC/IC80 CK): > 500 µM; MIC (Candida krusei ATCC 6258; ATCC6258, 48 h, pH 7, read-out: MIC/IC80 CK): > 500 µM; MIC (Candida tropicalis 156; Candida tropicalis, 156, 24 h, pH 7, read-out: MIC/IC80 CT): > 500 µM; MIC (Candida tropicalis 156; Candida tropicalis, 156, 48 h, pH 7, read-out: MIC/IC80 CT): > 500 µM; MIC (Candida glabrata 20/I; 24 h, pH 7, read-out: MIC/IC80 CG): > 500 µM; MIC (Candida glabrata 20/I; 48 h, pH 7, read-out: MIC/IC80 CG): > 500 µM; MIC ([5]; ATCC44859, 24 h, pH 7, read-out: MIC/IC80 CA): > 500 µM; MIC ([5]; ATCC44859, 48 h, pH 7, read-out: MIC/IC80 CA): > 500 µM; MIC (Absidia corymbifera 272; Lichtheimia corymbifera, 272, 24 h, pH 7, read-out: MIC/IC80 AC): > 500 µM; MIC (Absidia corymbifera 272; Lichtheimia corymbifera, 272, 48 h, pH 7, read-out: MIC/IC80 AC): > 500 µM |
| OC(Cn1cncn1)(Cn1cncn1)c1ccc(F)cc1F [FLU, Fluconazole, reference compound] | – | – | 0.24 (≈ 0.0735 µg/mL) | 0.48 (≈ 0.147 µg/mL) | 1.95 (≈ 0.597 µg/mL) | 3.91 (≈ 1.2 µg/mL) | > 125 | > 125 | 3.91 (≈ 1.2 µg/mL) | 15.6 (≈ 4.78 µg/mL) | 0.12 (≈ 0.0368 µg/mL) | > 125 | 0.98 (≈ 0.3 µg/mL) | 3.91 (≈ 1.2 µg/mL) | 0.06 (≈ 0.0184 µg/mL) | 0.12 (≈ 0.0368 µg/mL) | > 125 | > 125 | – |
| O=C(O)c1ccc2[nH]c(=O)cc(O)c2c1O [Compound 3, 4,5-Dihydroxy-2-oxo-1,2-dihydroquinoline-6-carboxylic acid] | 3.46 | 0.0002 | 250 (≈ 55.3 µg/mL) | > 500 | > 500 | > 500 | > 500 | > 500 | > 500 | > 500 | 500 (≈ 111 µg/mL) | > 500 | 250 (≈ 55.3 µg/mL) | 250 (≈ 55.3 µg/mL) | 125 (≈ 27.6 µg/mL) | 125 (≈ 27.6 µg/mL) | > 500 | > 500 | – |
| Nc1c(O)c2ccccc2[nH]c1=O [Compound 6, 3-Amino-4-hydroxyquinolin-2(1H)-one] | 3.11 | 0.0004 | > 500 | > 500 | > 500 | > 500 | > 500 | > 500 | > 500 | > 500 | > 500 | > 500 | > 500 | > 500 | > 500 | > 500 | > 500 | > 500 | – |
